Results reported in patent US9408887B2, “Intermittent dosing regimen for treating breast cancer” (New York University, priority 2011, dated 2016).
Entries after “also recorded” stand apart in the source; their conditions may differ. Where two headings read alike, the source gives them in different places. Starred links: 1 amine or outer side, 2 acyl side, 3 side chain; linkers in the order of their positions; H or OH if unused. Non-standard residues stand in square brackets, D forms with d. Residues, ends and D or L forms follow the SMILES beside them. Groups on a side chain read outwards from the residue. *: point of attachment. Ethylenediamine = C(CN[*:2])N[*:1]; Hyp = O=C(O)[C@@H]1C[C@@H](O)CN1; Phg = N[C@H](C(=O)O)c1ccccc1; CO = O=C([*:1])[*:2]; Bn = c1ccc(C*)cc1

Tests used:
[1] = tested on: Brca1LoxP/Brca1LoxP mice; experiment: LoxP mammary phenotype (duct width, hyperplasia, HANs) after IGF-I inhibitor treatment; type: in vivo, mouse; settings: for duct width, glandular hyperplasia and hyperplastic alveolar nodules (in words): symptomatic LoxP mice, after treatment
Experimental: The present inventor and colleagues have previously shown that growth hormone induced IGF-I activity is essential for mammary development and also estrogen and progesterone action. To determine whether inhibition of IGF-I action would prevent, reverse or delay the abnormalities associated with BRCA deficiency observed in LoxP animals, symptomatic animals were treated with three different compounds that inhibit IGF-I action.
Women with BRCA1 mutations are at high risk for developing breast cancer. As described above, an animal model of Brca1 deficiency (Brca1^LoxP/Brca1^LoxP mouse model system, also referred to herein as the LoxP mouse model system) was developed in which the mammary glands are abnormally developed and which presents with a phenotype similar to that observed in women with BRCA1 mutations. The Brca1loxP/loxP phenotype is characterized by ductal dilatation and epithelial hyperplasia. In earlier studies, 4 month old Brca1loxP/loxP mice were treated with pasireotide, PQ401 (a small molecule kinase inhibitor of the IGF-I receptor), or vehicle for 7 days. At the end of that period, mammary development in drug- vs. vehicle-treated animals was compared.

[2] = biological target: SSTR-5 (Homo sapiens, UniProt P35346); settings: cited from earlier work
[3] = Phase III, Cushing's disease; cited from earlier work
[4] = humans, cited from earlier work
[5] = biological target: SSTR-3 (Homo sapiens, UniProt P32745); settings: cited from earlier work
[6] = rats; Bruns et al. 2002, van der Hoek et al. 2004; cited from earlier work
[7] = tested on: somatostatin receptors; settings: of 5 subtypes; cited from earlier work
[8] = biological target: SSTR-1 (Homo sapiens, UniProt P30872); settings: cited from earlier work
[9] = tested on: PR/p63 double positive cells; experiment: Simultaneous immunofluorescence for PR and p63 in mammary glands of Brca1LoxP/Brca1LoxP (C57 loxP) mice; type: in vivo, mouse; settings: 7 days of treatment; for frequency of PR/p63 double positive cells: C57 loxP mice, untreated loxP 22.5±0.8%, wildtype 3.8±0.4%; for frequency of PR/p63 double positive cells (in words): LoxP mice
Experimental: Simultaneous Immunofluorescence for PR and p63: 3-5 μm paraffin embedded tissue sections from C57/b and C57 loxP mice were stained using antibodies against PR and p63 (Lab Vision). Briefly, samples were deparaffinized by 60° C. heating following by xylene immersion for 30 min. Antigens were retrieved by heating 10 min 95° C. followed by 10 min 85° C. in citric acid pH 6.0 (Vector). […] Next day, specific secondary goat anti mouse Alexa Fluor 488 and donkey anti rabbit Alexa Fluor 594 antibodies (Invitrogen) were used to a final concentration of 1:200 to detect the primary antibodies, by incubating the samples for 1 hour at room temperature. Finally, samples were counterstained using DAPI at 0.02 mg/ml and mounted with Vectashield (Vector). Samples were imaged using a 40× objective with 0.95 numerical aperture Zeiss Plan-Apochromat objective on a Zeiss Axiovert equipped with epifluorescence. The number of epithelial cells positive for PR, p63 or both, was then calculated as the relative frequency of positive cells per epithelial cells per image. Finally, frequencies of positive cells between animal groups were statistically analyzed with the chi-square distribution. A probability of p<0.05 was considered statistically significant. Women with BRCA1 mutations are at high risk for developing breast cancer. As described above, an animal model of Brca1 deficiency (Brca1^LoxP/Brca1^LoxP mouse model system, also referred to herein as the LoxP mouse model system) was developed in which the mammary glands are abnormally developed and which presents with a phenotype similar to that observed in women with BRCA1 mutations. The Brca1loxP/loxP phenotype is characterized by ductal dilatation and epithelial hyperplasia. In earlier studies, 4 month old Brca1loxP/loxP mice were treated with pasireotide, PQ401 (a small molecule kinase inhibitor of the IGF-I receptor), or vehicle for 7 days. At the end of that period, mammary development in drug- vs. vehicle-treated animals was compared.

[10] = tested on: Ki67 staining (cell proliferation); experiment: Cell proliferation by Ki67 immunohistochemistry in mammary glands of LoxP mice; type: in vivo, mouse; settings: for cell proliferation as assessed by Ki67 immunohistochemistry: after treatment
[11] = tested on: mammary gland development; settings: rats; cited from earlier work
[12] = Serum glucose and insulin levels during and post SOM230 treatment in patients; settings: human, in vivo
[13] = tested on: cells with more than 1 or 2 centrosomes per cell; experiment: Centrosome index by γ-tubulin immunolocalization in mammary glands of LoxP mice (genomic instability); type: in vivo, mouse; settings: 7 days of treatment
From the text: Evidence directed to this point is presented in FIG. 2A, wherein immunolocalization of γ-tubulin (green) is used to locate centrosomes in the mammary glands of wildtype (WT) or Brca1 deficient (Brca1^LoxP/Brca1^LoxP) mice. Nuclei (blue) are counterstained. As shown therein, 1 or 2 centrosomes per cell are observed in wildtype mice, reflecting normal, control numbers of centrosomes in individual cells.
Nuclei (blue) are counterstained. In wildtype mice, 1 or 2 centrosomes per cell are observed, reflecting normal, control numbers of centrosomes in individual cells.

[14] = biological target: SSTR-2 (Homo sapiens, UniProt P30874); settings: cited from earlier work
[15] = tested on: breast cancer; settings: women with hyperplastic lesions of the breast; clinical evidence; cited from earlier work
[16] = 13 patients, 30 days after stopping SOM230

Sequence of SSTR-2 (P30874 whole entry, species assumed): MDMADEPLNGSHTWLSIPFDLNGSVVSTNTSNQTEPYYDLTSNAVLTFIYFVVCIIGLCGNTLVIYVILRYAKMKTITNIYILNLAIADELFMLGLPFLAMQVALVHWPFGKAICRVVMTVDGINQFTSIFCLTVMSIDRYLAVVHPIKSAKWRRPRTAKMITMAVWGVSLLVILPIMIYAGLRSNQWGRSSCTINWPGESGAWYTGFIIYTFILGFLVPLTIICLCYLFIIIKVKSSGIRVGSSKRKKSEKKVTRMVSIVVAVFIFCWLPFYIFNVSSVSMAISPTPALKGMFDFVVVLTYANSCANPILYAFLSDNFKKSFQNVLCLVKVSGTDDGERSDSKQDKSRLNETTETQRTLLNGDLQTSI
Sequence of SSTR-5 (P35346 whole entry, species assumed): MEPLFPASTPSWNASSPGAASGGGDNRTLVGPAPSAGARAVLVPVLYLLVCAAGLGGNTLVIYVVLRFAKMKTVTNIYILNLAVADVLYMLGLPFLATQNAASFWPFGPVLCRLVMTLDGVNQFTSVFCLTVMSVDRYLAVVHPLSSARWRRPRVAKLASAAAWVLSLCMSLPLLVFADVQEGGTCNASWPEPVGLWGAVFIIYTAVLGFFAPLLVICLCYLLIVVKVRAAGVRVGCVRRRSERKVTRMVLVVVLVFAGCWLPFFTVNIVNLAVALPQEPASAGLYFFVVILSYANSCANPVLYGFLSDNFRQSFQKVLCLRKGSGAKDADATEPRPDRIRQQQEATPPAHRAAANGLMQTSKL
Sequence of SSTR-3 (P32745 whole entry, species assumed): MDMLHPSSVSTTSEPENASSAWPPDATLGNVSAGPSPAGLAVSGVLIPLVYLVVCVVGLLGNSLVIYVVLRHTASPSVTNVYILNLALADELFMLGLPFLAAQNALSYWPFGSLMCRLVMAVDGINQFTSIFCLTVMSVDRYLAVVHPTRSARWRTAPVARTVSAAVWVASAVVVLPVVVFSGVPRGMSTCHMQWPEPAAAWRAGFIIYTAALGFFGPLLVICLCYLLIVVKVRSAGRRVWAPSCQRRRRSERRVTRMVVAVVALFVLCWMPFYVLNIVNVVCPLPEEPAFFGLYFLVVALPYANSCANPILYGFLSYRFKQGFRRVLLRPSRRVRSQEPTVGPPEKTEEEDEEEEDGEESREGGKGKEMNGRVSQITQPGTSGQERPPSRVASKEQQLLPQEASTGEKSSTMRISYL
Sequence of SSTR-1 (P30872 whole entry, species assumed): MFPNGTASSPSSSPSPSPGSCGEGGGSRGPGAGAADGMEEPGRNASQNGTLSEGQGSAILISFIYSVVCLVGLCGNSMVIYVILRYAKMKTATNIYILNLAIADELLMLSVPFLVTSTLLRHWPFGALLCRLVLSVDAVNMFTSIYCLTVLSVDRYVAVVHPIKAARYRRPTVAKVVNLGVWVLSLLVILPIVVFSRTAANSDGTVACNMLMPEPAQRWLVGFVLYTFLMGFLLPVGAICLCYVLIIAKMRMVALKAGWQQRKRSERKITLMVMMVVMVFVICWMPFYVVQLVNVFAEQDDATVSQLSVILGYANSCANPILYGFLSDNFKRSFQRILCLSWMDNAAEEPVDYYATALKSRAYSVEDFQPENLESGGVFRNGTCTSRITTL

SMILES: NCCCC[C@@H]1NC(=O)[C@@H](Cc2c[nH]c3ccccc23)NC(=O)[C@H](c2ccccc2)NC(=O)[C@@H]2C[C@@H](OC(=O)NCCN)CN2C(=O)[C@H](Cc2ccccc2)NC(=O)[C@H](Cc2ccc(OCc3ccccc3)cc2)NC1=O [SOM230] (cyclo(F[Hyp]([CO-Ethylenediamine])[Phg][dW]KY(Bn)))
- abnormal ductal dilatation ([1]; LoxP mice): significant effect on inhibiting
- formation of HANs ([1]; LoxP mice): preventing formation of HANs
- duct width at 21 days post-treatment (in words) ([1]; LoxP mice, SOM230 treatment then 21 days rest): maintained
- time clinical benefit (reduction in PR/p63+ progenitor cells, ductal width and/or proliferative cells) is maintained into the rest period ([1]; LoxP mice, after end of administration): at least 20 days
- duct width, glandular hyperplasia and hyperplastic alveolar nodules (in words) [1]: reduces duct width
- duct width, glandular hyperplasia and hyperplastic alveolar nodules (in words) ([1]; listed as Pasireotide): reduces duct width, glandular hyperplasia and hyperplastic alveolar nodules
- affinity for SSTR-5 [2]: high binding affinity
- HbA1C level [3]: increased
- cholelithiasis [3]: 30%
- diarrhea [3]: 58%
- fasting plasma glucose level [3]: increased
- hyperglycemia [3]: 40%
- nausea [3]: 52%
- patients with a hyperglycemia-related adverse event [3]: 73%
- terminal half life ([4]; Bruns et al. 2002, van der Hoek et al. 2004): 27 h
- plasma half life ([4]; Ma et al. 2005): approximately 12 hours
- affinity for SSTR-3 [5]: high binding affinity
- terminal half life [6]: 27 h
- somatostatin receptors bound [7]: 4 of the 5
- affinity for SSTR-1 [8]: high binding affinity
- frequency of PR/p63 double positive cells [9]: 5%
- frequency of PR/p63 double positive cells ([9]; listed as pasireotide): 4.8±1.2%
- frequency of PR/p63 double positive cells (in words) [9]: significantly reduce; also recorded: dramatically reduced
- serum glucose at 60 days after discontinuation (13 patients): normal
- serum insulin at 60 days after discontinuation (13 patients): normal
- time by which serum glucose and insulin levels normalize after SOM230 administration ceases (13 patients): ≤ 30 days
- mean glucose [16]: 95
- serum insulin [16]: increased
- women tested with finger stick glucoses of less than 92 mg/dL (by 4 days after cessation of SOM230 administration): 6 of 8
- patients with hyperglycemia (patients diagnosed with or pre-disposed to breast cancer treated with SOM230): 100%
- 30 day post-treatment glucose of the patient ultimately determined to be diabetic (single patient, initial blood sugar 100): 117
- cell proliferation as assessed by Ki67 immunohistochemistry [10]: significantly reduce cell proliferation
- cell proliferation (Ki67 staining) at 21 days post-treatment ([10]; treated vs untreated, 21 days into rest period): continues to be inhibited
- IRS-1 phosphorylation in the mammary gland [11]: reduction
- growth hormone secretion from the pituitary [11]: inhibitory effect
- mammary gland development [11]: prevents mammary gland development
- normalization of finger stick glucose after stopping medication (in words) [12]: almost immediately
- centrosome index / frequency of cells with more than 1 or 2 centrosomes (in words) [13]: significantly reduced
- affinity for SSTR-2 [14]: high binding affinity

SMILES: C[C@H](N)C(=O)NCC(=O)N[C@H]1CSSC[C@@H](C(=O)O)NC(=O)[C@H](CO)NC(=O)[C@H]([C@@H](C)O)NC(=O)[C@H](Cc2ccccc2)NC(=O)[C@H]([C@@H](C)O)NC(=O)C(CCCCN)NC(=O)[C@H](Cc2c[nH]c3ccccc23)NC(=O)[C@H](Cc2ccccc2)NC(=O)[C@H](Cc2ccccc2)NC(=O)[C@H](CC(N)=O)NC(=O)[C@H](CCCCN)NC1=O (some centres unmarked) [SS14]
- number of HANs ([1]; nine month old LoxP animals): impressive reduction
- duct width, glandular hyperplasia and hyperplastic alveolar nodules (in words) [1]: reduces duct width, glandular hyperplasia and hyperplastic alveolar nodules
- somatostatin receptors bound [7]: all of the somatostatin receptors

SMILES: COc1ccc(Cl)cc1NC(=O)Nc1cc(C)nc2ccccc12 [PQ401]
- duct width, glandular hyperplasia and hyperplastic alveolar nodules (in words) [1]: reduces duct width, glandular hyperplasia and hyperplastic alveolar nodules
- frequency of PR/p63 double positive cells (in words) [9]: significantly reduce; also recorded: dramatically reduced
- cell proliferation as assessed by Ki67 immunohistochemistry [10]: significantly reduce cell proliferation
- centrosome index / frequency of cells with more than 1 or 2 centrosomes (in words) [13]: significantly reduced

SMILES: CC/C(=C(\c1ccccc1)c1ccc(OCCN(C)C)cc1)c1ccccc1 [tamoxifen]
- prevention of the development of cancer [15]: about 50%
